In general, pIC50 refers to −log10 of the IC50, conventionally taken in molar units.

SMILES strings stand for the structures. pIC50: −log10 of the molar value.

For 13 compounds, IC50 results are on record in patent US20150175599A1, “FAAH Inhibitors” (Ironwood Pharmaceuticals, Inc., priority 2010, published 2015).

The experiment has as its target T1, human FAAH-1 (Homo sapiens, UniProt O00519).
T1 sequence (O00519 1-579): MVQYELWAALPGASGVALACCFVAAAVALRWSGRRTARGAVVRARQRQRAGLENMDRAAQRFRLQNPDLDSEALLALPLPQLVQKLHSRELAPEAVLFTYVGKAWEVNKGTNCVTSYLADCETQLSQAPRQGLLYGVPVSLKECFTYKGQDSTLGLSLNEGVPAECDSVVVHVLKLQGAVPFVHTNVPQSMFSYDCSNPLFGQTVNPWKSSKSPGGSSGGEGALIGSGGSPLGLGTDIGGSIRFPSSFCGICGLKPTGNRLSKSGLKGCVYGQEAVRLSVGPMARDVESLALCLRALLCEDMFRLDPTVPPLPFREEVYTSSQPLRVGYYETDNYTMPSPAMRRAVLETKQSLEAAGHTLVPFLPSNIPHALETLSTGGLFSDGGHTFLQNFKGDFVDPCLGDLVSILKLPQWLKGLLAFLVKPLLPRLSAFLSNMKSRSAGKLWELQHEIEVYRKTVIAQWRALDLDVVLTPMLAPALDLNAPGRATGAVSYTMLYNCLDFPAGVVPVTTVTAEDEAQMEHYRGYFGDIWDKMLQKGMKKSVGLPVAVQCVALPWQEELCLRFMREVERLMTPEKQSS
The experiment in a line: Whole cell anandamide hydrolysis assay (HeLa clone 5c5 transfected with human FAAH-1). It counts as cell-based. As to conditions: HeLa clone 5c5 expressing human FAAH-1; read-out: human FAAH whole cell IC50. Here is the method:
FAAH activity was assayed in whole cells using methods disclosed previously (Maccarone et al., 1998 J Biol. Chem. 273:32332 and Bisogno et al., 1997 J Biol. Chem. 272:3315). In addition to the cell lines described in Maccarone et al. and Bisogno et al., MCF7 (ATCC designation HTB-22) and T84 (ATCC designation CCL-248) cell lines were also used in these assays.
cDNA expression clone for human FAAH-1 (in pcDNA3 vector) (Genbank Accession U82535; obtained from Benjamin Cravatt, Scripps Research Institute, La Jolla, Calif.) was linearized by digestion with BglII (New England Biolabs) and transfected by calcium phosphate into human HeLa cells (ATCC catalog #CCL-2). […] Following transfection, a stable HeLa-derived clone, designated 5c5, was isolated by single colony purification and expanded and maintained in modified Eagles medium (MEM; VWR catalog #45000-300) containing 10% fetal bovine serum (FBS), 2 mM L-glutamine, and 0.5 mg/mL G-418 (Sigma catalog #G5013).
Clone 5c5 (50,000 cells in 150 μL) was seeded into 96-well plates and incubated overnight (5% CO2, 37° C.). Media was carefully replaced with 180 μL DMEM/F12 medium (VWR catalog #45000-350) containing 15 mM HEPES, pH 7.4 and 0.1% fatty acid free BSA (Sigma catalog #A0281). Then, 2 μL of 100× desired final concentrations of certain exemplary compounds described herein were made up in DMSO, added to wells containing cells, and plates were incubated at 37° C. for 10 min. Next, 20 μL of 5 μM anandamide (Cayman catalog #90050) spiked with 8 μCi of anandamide-(ethanolamine-1-[^3H]) (American Radiolabeled Chemicals, Inc., catalog #ART 626) was added to the cells and the plates were incubated for an additional 15 min at 37° C. The reactions were terminated by chilling the plates on ice and adding 20 μL of 0.5M of potassium phosphate buffer (adjusted to pH 2.1 with phosphoric acid).
The acidified reactions were transferred to 96-well filter plates (0.25 mL capacity/well, 1.2 micron glass fiber pre-filter packed above 0.65 micron pore-size PVDF membrane, Millipore catalog MSFCN6B50) containing 25 μL charcoal (neutral activated carbon, Fisher Scientific catalog C170-500) per well. Prior to the assay, charcoal was measured and loaded onto the plate using an aluminum 96-well column loading device (Millipore catalog MACL09625). The filter plate was assembled over an empty 96-well plate (Costar) using a centrifuge alignment frame (Millipore catalog MACF09604) to allow for collection of the filtrate in the receiver plate. The charcoal glass-fiber filter plates were pre-washed with methanol by centrifugation 650×g for 10 min). Next, 80 μL of water was added to the wells of the pre-washed 96 well charcoal filter plate. Then, 90 μL of the acidified reaction mixture was added to the water in the wells of the charcoal plate. The samples were centrifuged as above. The substrate remained bound to the charcoal, whereas the [^3H]-ethanolamine product formed flowed through and was transferred to the microplates containing scintillation cocktail and quantified in a micro-plate scintillation counter (Perkin-Elmer Microbeta). Control reactions with either no cells or cells treated with DMSO alone were performed in triplicate and used to define background (no cells) and 100% activity (DMSO alone).
Following subtraction of background radioactivity, data were expressed as percent inhibition relative to 100% activity and fit with a nonlinear regression curve using GraphPad Prism Software (GraphPad Software Inc). IC50 values were calculated from the resulting dose-response curves constrained at top and bottom to 100% and 0%, respectively.
Take `COc1cc(NC(=O)C(=O)c2c(C)n(Cc3ccc(Cl)cc3)c3ccc(OC(C)=O)cc23)ccn1` [Compound 1, 1-(4-chlorobenzyl)-3-(2-(2-methoxypyridin-4-ylamino)-2-oxoacetyl)-2-methyl-1H-indol-5-yl acetate]: the negative-log IC50 (pIC50) is more than 7.00.

For `COc1cc(NC(=O)C(=O)c2c(C)n(Cc3ccc(Cl)cc3)c3ccc(O)cc23)ccn1` [Compound 2, 2-(1-(4-chlorobenzyl)-5-hydroxy-2-methyl-1H-indol-3-yl)-N-(2-methoxypyridin-4-yl)-2-oxoacetamide], the pIC50 is more than 7.00.

As for `COc1cc(NC(=O)C(=O)c2c(C)n(Cc3ccc(Cl)cc3)c3ccc(C(C)=O)cc23)ccn1` [Compound 5, 2-(5-acetyl-1-(4-chlorobenzyl)-2-methyl-1H-indol-3-yl)-N-(2-methoxypyridin-4-yl)-2-oxoacetamide], the negative-log IC50 (pIC50) was more than 7.00.

On to `COc1cc(NC(=O)C(=O)c2c(C)n(Cc3ccc(Cl)cc3)c3ccc(C(=O)N(C)C)cc23)ccn1` [Compound 6, 1-(4-chlorobenzyl)-3-(2-(2-methoxypyridin-4-ylamino)-2-oxoacetyl)-N,N,2-trimethyl-1H-indole-5-carboxamide], for which the pIC50 was 6.00 to 7.00.

For `COc1cc(NC(=O)C(=O)c2c(C)n(Cc3ccc(Cl)cc3)c3ccc(N(C)C(=O)OC(C)(C)C)cc23)ccn1` [Compound 7, Tert-butyl(1-(4-chlorobenzyl)-3-(2-((2-methoxypyridin-4-yl)amino)-2-oxoacetyl)-2-methyl-1H-indol-5-yl)(methyl)carbamate], the pIC50 was 6.00 to 7.00.

On to `COc1cc(NC(=O)C(=O)c2c(C)n(Cc3ccc(Cl)cc3)c3ccc(CO)cc23)ccn1` [Compound 8, 2-(1-(4-chlorobenzyl)-5-(hydroxymethyl)-2-methyl-1H-indol-3-yl)-N-(2-methoxypyridin-4-yl)-2-oxoacetamide], for which the negative logarithm of the IC50 (pIC50) is more than 7.00.

Take `CNc1ccc2c(c1)c(C(=O)C(=O)Nc1ccnc(OC)c1)c(C)n2Cc1ccc(Cl)cc1` [Compound 9, 2-(1-(4-chlorobenzyl)-2-methyl-5-(methylamino)-1H-indol-3-yl)-N-(2-methoxypyridin-4-yl)-2-oxoacetamide]: the negative-log IC50 (pIC50) is more than 7.00.

Regarding `COc1cc(NC(=O)C(=O)c2c(C)n(Cc3ccc(Cl)cc3)c3ccc(COC(C)=O)cc23)ccn1` [Compound 10, (1-(4-chlorobenzyl)-3-(2-(2-methoxypyridin-4-ylamino)-2-oxoacetyl)-2-methyl-1H-indol-5-yl)methyl acetate], the negative-log IC50 (pIC50) was more than 7.00.

With `COCc1ccc2c(c1)c(C(=O)C(=O)Nc1ccnc(OC)c1)c(C)n2Cc1ccc(Cl)cc1` [Compound 11, 2-(1-(4-chlorobenzyl)-5-(methoxymethyl)-2-methyl-1H-indol-3-yl)-N-(2-methoxypyridin-4-yl)-2-oxoacetamide], the negative logarithm of the IC50 (pIC50) is more than 7.00.

Take `COc1ccc2c(c1)c(C(=O)C(=O)Nc1ccnc(OC)c1)c(C)n2Cc1cnc(Cl)cn1` [Compound 12, 2-(1-((5-chloropyrazin-2-yl)methyl)-5-methoxy-2-methyl-1H-indol-3-yl)-N-(2-methoxypyridin-4-yl)-2-oxoacetamide]: the pIC50 is more than 7.00.

Consider `COc1cc(NC(=O)C(=O)c2c(C)n(Cc3ncc(Cl)cc3Cl)c3cc(F)c(OC)cc23)ccn1` [Compound 13, 2-(1-((3,5-dichloropyridin-2-yl)methyl)-6-fluoro-5-methoxy-2-methyl-1H-indol-3-yl)-N-(2-methoxypyridin-4-yl)-2-oxoacetamide], for which the negative-log IC50 (pIC50) was more than 7.00.

Take `COc1cc(NC(=O)C(=O)c2c(C)n(Cc3ccc(F)cc3F)c3cc(F)c(OC)cc23)ccn1` [Compound 14, 2-(1-(2,4-difluorobenzyl)-6-fluoro-5-methoxy-2-methyl-1H-indol-3-yl)-N-(2-methoxypyridin-4-yl)-2-oxoacetamide]: the pIC50 was more than 7.00.

Regarding `COc1cc(NC(=O)C(=O)c2c(C)n(Cc3ccc(Cl)cc3)c3ccc(C#N)cc23)ccn1` [Compound 15, 2-(1-(4-chlorobenzyl)-5-cyano-2-methyl-1H-indol-3-yl)-N-(2-methoxypyridin-4-yl)-2-oxoacetamide], the pIC50 is more than 7.00.
